Source: publication PMC2222952, “Structural and Biochemical Bases for the Inhibition of Autophagy and Apoptosis by Viral BCL-2 of Murine γ-Herpesvirus 68” (PLoS Pathogens, 2008)
“Also recorded” adds a separate entry of the source. Ends that are not written are not given here.

T1: M11, viral BCL-2 of murine γ-herpesvirus 68 (residues 1–137) (Murid herpesvirus 4, UniProt P89884)
T1 construct: Each of the DNA fragments coding for M11 (residues 1–137); His6 tag; This is inferred: pPROEX HTa encodes an N-terminal His tag with a TEV site, and purification was on Ni-NTA; (N); made in house; host or cells: E. coli BL21(DE3)
T1 sequence (P89884 whole entry, looked up): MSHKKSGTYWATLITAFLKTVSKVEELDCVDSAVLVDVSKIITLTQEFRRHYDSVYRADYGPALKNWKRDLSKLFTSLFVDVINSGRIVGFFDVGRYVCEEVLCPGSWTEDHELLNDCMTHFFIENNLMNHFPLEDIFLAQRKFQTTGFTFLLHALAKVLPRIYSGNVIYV

T2: M11 (residues 1–137), purified alone (murine γ-herpesvirus 68, UniProt P89884 1-137)
T2 chain: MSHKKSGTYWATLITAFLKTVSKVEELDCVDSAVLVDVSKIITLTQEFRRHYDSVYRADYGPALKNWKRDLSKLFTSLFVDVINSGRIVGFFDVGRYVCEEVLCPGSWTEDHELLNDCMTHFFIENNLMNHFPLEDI

T3: mouse BAD (residues 43–204) (mouse, UniProt Q61337 43-204)
T3 sequence (looked up): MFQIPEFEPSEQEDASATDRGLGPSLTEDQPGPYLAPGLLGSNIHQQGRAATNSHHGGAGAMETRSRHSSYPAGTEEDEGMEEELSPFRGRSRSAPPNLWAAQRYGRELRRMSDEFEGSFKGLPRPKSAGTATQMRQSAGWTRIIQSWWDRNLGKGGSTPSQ

T4: M11 (residues 1–137), coexpressed with Beclin1(101–150) (murine γ-herpesvirus 68, UniProt P89884 1-137)
T4 sequence: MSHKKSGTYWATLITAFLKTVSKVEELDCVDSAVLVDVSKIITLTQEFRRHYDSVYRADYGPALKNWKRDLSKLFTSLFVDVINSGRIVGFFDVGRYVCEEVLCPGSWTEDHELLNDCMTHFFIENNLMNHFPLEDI

B1: mouse BCL-XL (residues 1–44 and 85–196) (domain or fragment, UniProt Q64373-1 1-196, looked up)
chain: MSQSNRELVVDFLSYKLSQKGYSWSQFSDVEENRTEAPEETEAEAVKQALREAGDEFELRYRRAFSDLTSQLHITPGTAYQSFEQVVNELFRDGVNWGRIVAFFSFGGALCVESVDKEMQVLVSRIASWMATYLNDHLEPWIQENGGWDTFVDLYG
notes: also called BCL-XL lacking the internal long loop and the C-terminal tail region
B2: Beclin1(101–150) (domain or fragment, mouse, UniProt O88597 101-150, looked up)
chain: ASDGGTMENLSRRLKVTGDLFDIMSGQTDVDHPLCEECTDTLLDQLDTQL
notes: also called mouse Beclin1 fragment consisting of residues 101–150; 50-residue Beclin1 fragment

Experiments:
[1] = tested on: M11–Beclin1(101–267) complex; test: Displacement test on M11–Beclin1(101–267) complex; type: binding, murine γ-herpesvirus 68; conditions: M11 mixed with Beclin1(101–267) at 1:1 molar ratio, 1 h; BH3 peptide added, additional 1 h; gel
Source text: (§1) A newly identified function of BCL-2 is the down regulation of autophagy through their inhibitory binding to Beclin1, which appears critical for cellular homeostasis. […] The weak interaction explains the recent observation that endogenous BH3-only proteins induce autophagy by displacing Beclin1 from BCL-2/BCL-XL [31]. Like the cellular kin, two viral BCL-2 proteins from γHV68 and KSHV are known to inhibit autophagy in addition to suppressing apoptotic death of cells. In this study, we provided the structural basis for the inhibitory interaction of M11 with Beclin1, which is reminiscent of the canonical interaction between a BH3 peptide and a BH3-binding groove. […] As a confirmatory experiment, we carried out a displacement test, where a complex between two proteins was challenged by another protein. […] Conceivably, M11 could negate the proautophagic role of the BH3-only proteins under apoptosis-inducing conditions in contrast with BCL-2/BCL-XL.
The complexes between each of the BH3 peptides and BCL-2 or BCL-XL appeared. The numbers above the gels indicate the final concentrations of the indicated proteins and peptides. The schematic drawings are shown to help to understand the experimental scheme and results. (1.8 MB TIF) Click here for additional data file.

[2] = tested on: BCL-2 ∆C22; design: method as in earlier work; conditions: Table S1; relative values, not absolute KD; peptides of Chen et al. are the same as or 1 to 2 residues shorter than those of this paper; read-out: binding affinity for BCL-2 ∆C22 (relative value, competitive binding assay); cited from earlier work
[3] = tested on: BCL-XL ∆C24; conditions: Table S1; relative values, not absolute KD; peptides of Chen et al. are the same as or 1 to 2 residues shorter than those of this paper; read-out: binding affinity for BCL-XL ∆C24 (relative value, competitive binding assay); cited from earlier work
[4] = tested on: BCL-w ∆C29; conditions: Table S1; relative values, not absolute KD; peptides of Chen et al. are the same as or 1 to 2 residues shorter than those of this paper; read-out: binding affinity for BCL-w ∆C29 (relative value, competitive binding assay); cited from earlier work
[5] = tested on: A1 ∆C20; design: method as in earlier work; conditions: Table S1; relative values, not absolute KD; peptides of Chen et al. are the same as or 1 to 2 residues shorter than those of this paper; read-out: binding affinity for A1 ∆C20 (relative value, competitive binding assay); cited from earlier work
[6] = molecular target: T1, M11, viral BCL-2 of murine γ-herpesvirus 68 (residues 1–137); type: binding; conditions: 25 °C, 20 mM Tris-HCl (pH 7.4), 100 mM NaCl
Source text: “HT”, “CCD” and “ECD” denote hydrophobic tail, coiled-coil domain and evolutionarily conserved domain, respectively. […] The surface coloring scheme is as follows: olive for Val, Leu, Ile, Phe, Trp, Met, and Ala; yellow for Cys, Gly, Tyr, and Pro; gray for other amino acids. […] Only the BH3-binding groove region of M11 is shown for clarity. […] The arrows indicate the movements of the Cα atoms of Asp59 and Tyr60 in M11. (C) ITC analysis.
Figure 5 Analyses of the Interactions between M11 or BCL-2 Proteins and BAX/BAK (A) Cell-based binding assay. 293T cells were transfected with HA-tagged BAK or Flag-tagged BAX together with the indicated GST-tagged prosurvival BCL-2 proteins. Whole cell lysates were used for immunoprecipitation with anti-GST followed by immunoblotting with anti-HA or anti-Flag. […] (B) ITC analyses of the interactions of M11 with the BH3 peptides of BAX or BAK. The ITC analysis was carried out by titrating 0.1 mM of the indicated peptides into 5 μM of M11. The ITC run for the titration of the 26-mer BAK peptide is shown. […] NIH3T3 cells were transfected with HA-tagged M11 and whole cell lysates were used for immunoprecipitation with control rabbit serum or anti-BAK followed by immunoblotting with anti-HA.
A plasmid containing the DNA segment coding for human BCL-2 (residues 1–50 and 92–207) was also constructed. The resulting protein lacks the internal long loop (residues 51–91) and contains a replacement of residues 35–50 with residues 33–48 of BCL-XL, which was necessary for the solubility of the protein as reported earlier. Each construct was introduced into the E. coli BL21(DE3) strain. The proteins were expressed at 21 °C overnight and purified using a Ni-NTA column and a Hitrap Q anion exchange column.
All measurements were carried out at 25 °C on a MicroCalorimetry System (MicroCal). Protein samples were dialyzed against the solution containing 20 mM Tris-HCl (pH 7.4) and 100 mM NaCl. The samples were degassed for 20 min and centrifuged to remove any residuals prior to the measurements. Dilution enthalpies were measured in separate experiments (titrant into buffer) and subtracted from the enthalpies of the binding between the protein and the titrant. Data were analyzed using the Origin software (OriginLab Corp.).

[7] = tested on: BCL-2–Beclin1(101–267) complex; test: Displacement test on BCL-2–Beclin1(101–267) complex; type: binding, human; conditions: BCL-2 mixed with Beclin1(101–267) at 1:4 molar ratio, 1 h; BH3 peptide added; gel
Source text: as §1
(§2) Each of the DNA fragments coding for M11 (residues 1–137), mouse BCL-XL (residues 1–44 and 85–196) or mouse Beclin1 (residues 101–267) was cloned into pPROEX HTa. A plasmid containing the DNA segment coding for human BCL-2 (residues 1–50 and 92–207) was also constructed. […]

[8] = tested on: BCL-XL–Beclin1(101–267) complex; test: Displacement test on BCL-XL–Beclin1(101–267) complex; type: binding, mouse; conditions: BCL-XL mixed with Beclin1(101–267) at 1:4 molar ratio, 1 h; BH3 peptide added; gel
Source text: as §1, §2

[9] = tested on: MCL ∆N151 ∆C23; design: method as in earlier work; conditions: Table S1; relative values, not absolute KD; peptides of Chen et al. are the same as or 1 to 2 residues shorter than those of this paper; read-out: binding affinity for MCL ∆N151 ∆C23 (relative value, competitive binding assay); cited from earlier work
[10] = molecular target: Beclin1 peptide (UniProt Q14457); conditions: cited from earlier work
[11] = molecular target: T2, M11 (residues 1–137), purified alone; test: ITC
[12] = molecular target: T3, mouse BAD (residues 43–204); test: crystal structure; BCL-XL (1–44, 85–196) coexpressed and co-purified with BAD(43–204); hanging drop, 4 °C, 10% PEG 1000, 10% PEG 8000; 2.3 Å; conditions: both partners purified
[13] = molecular target: T4, M11 (residues 1–137), coexpressed with …; test: crystal structure; conditions: both partners purified

Molecule	IC50 [2]	IC50 [3]	IC50 [4]	IC50 [5]	further results
CC[C@H](C)[C@H](NC(=O)[C@H](CCCCN)NC(=O)[C@H](CCCNC(=N)N)NC(=O)[C@H](CC(C)C)NC(=O)[C@H](CCC(N)=O)NC(=O)[C@H](C)NC(=O)[C@H](C)NC(=O)[C@H](Cc1ccccc1)NC(=O)[C@H](CCC(=O)O)NC(=O)[C@@H]1CCCN1C(=O)[C@@H]1CCCN1C(=O)[C@H](CC(C)C)NC(=O)[C@H](CCC(=O)O)NC(=O)[C@H](C)NC(=O)[C@@H](N)CCCNC(=N)N)C(=O)NCC(=O)N[C@@H](CC(=O)O)C(=O)N[C@@H](CCCCN)C(=O)N[C@H](C(=O)N[C@@H](Cc1ccc(O)cc1)C(=O)N[C@@H](CS)C(=O)N[C@H](C(=O)N[C@@H](Cc1c[nH]c2ccccc12)C(=O)N[C@@H](CO)C(=O)N[C@@H](C)C(=O)N1CCC[C@H]1C(=O)O)[C@@H](C)O)C(C)C [Noxa]	> 100 µM	> 100000 nM	> 100000 nM	180 nM	displacement of Beclin1(101–267) bound to M11 by BH3 peptide [1]: remained intact; also recorded: failed to displace
BAD: synthetic 27-mer BH3 peptide, residues 137–163 of BAD (TATQMRQSSSWTRVFQSWWDRNLGRGS; BH3 peptide; UniProt Q92934 137-163, looked up, fragment)	0.016 µM	5.3 nM	30 nM	15000 nM	interaction with M11 in ITC, in words (KD could not be deduced) [6]: did not interact or poorly interacted; displacement of Beclin1(101–267) bound to BCL-2 by BH3 peptide [7]: easily disrupted; displacement of Beclin1(101–267) bound to BCL-XL by BH3 peptide [8]: easily disrupted; IC50 [9]: > 100 µM
BCL-XL (from UniProt Q07817)					Kd [10]: 1100 nM
EEIIHNIARHLAQIGDEMDHNIQPT [BID]	6.8 µM	82 nM	40 nM	9.3 nM	displacement of Beclin1(101–267) bound to M11 by BH3 peptide [1]: remained intact; also recorded: failed to displace
HRAEVQIARKLQCIADQFHRLHTQ [BMF BH3 peptide, 24-mer (residues 214–237 of BMF)]					Kd [11]: 300 nM
B1					binding result [12]: binds
B2					binding result [13]: binds
